These results are taken from US10961252B2, “Quinazoline and indole compounds to treat medical disorders” (Achillion Pharmaceuticals, Inc., priority 2016, dated 2021).

Where a name gives a salt, the structure may show the parent alone. Read-outs that look alike come from different tables or passages of the source.

For orientation: IC50 means the midpoint of a concentration-inhibition curve.

For this assay, the system named is Normal Human Serum (NHS). Briefly: Hemolysis assay: lysis of rabbit erythrocytes (RE) by Normal Human Serum (NHS). It counts as cell-based. To be noted: rabbit erythrocyte, 0.5 h, GVB0 plus 10 mM Mg-EGTA, 37° C. The procedure:
The hemolysis assay was previously described by G. Ruiz-Gomez, et al., J. Med. Chem. (2009) 52: 6042-6052. Prior to the assay, the optimum concentration of Normal Human Serum (NHS) needed to achieve 100% lysis of rabbit erythrocytes (RE) is determined by titration. In the assay, NHS (Complement Technology) is diluted in GVB^0 Buffer (0.1% gelatin, 5 mM Veronal, 145 mM NaCl, 0.025% NaN3, pH 7.3, Complement Technology) plus 10 mM Mg-EGTA and incubated with test compound at various concentrations for 15 minutes at 37° C. RE (Complement Technology) freshly suspended in GVB^0 plus 10 mM Mg-EGTA are added to a final concentration of 1×10^8 cells/mL and reactions are incubated for 30 minutes at 37° C. Positive control reactions (100% lysis) consist of GVB^0 plus 10 mM Mg-EGTA with NHS and RE but without test compound; negative control reactions (0% lysis) consist of GVB^0 plus 10 mM Mg-EGTA with RE only. Samples are centrifuged at 2000 g for 3 minutes and supernatants collected. Absorbance at 405 nm (A405) is recorded using a microplate spectrophotometer. IC50 values are calculated by nonlinear regression from the percentage of hemolysis as a function of test compound concentration.

[1] abbreviates: Table 1, hemolysis of rabbit erythrocytes with NHS, read-out: IC50.
Setting [2] is: Table 3, hemolysis of rabbit erythrocytes with NHS, read-out: IC50 (Stars).

In the case of `COc1cc2c(N)nc(N3CCN(C(=O)C[C@@H]4C[C@@H]5CCC[C@@H]5N4)CC3)nc2c(F)c1OC` [Compound 2, 1-(4-(4-Amino-8-fluoro-6,7-dimethoxyquinazolin-2-yl)piperazin-1-yl)-2-((2S,3aS,6aS)-octahydrocyclopenta[b]pyrrol-2-yl)ethan-1-one Hydrochloride], the IC50 under setting [1] was < 1000 nM.
For `COc1cc(C)c2[nH]ccc2c1CN1CC[C@@H](C)C[C@H]1c1ccc(S(C)(=N)=O)cc1` (stereo partly drawn) [Compound 22, 5-Methoxy-7-methyl-4-(((2 S,4R)-4-methyl-2-(4-(S-methylsulfonimidoyl)phenyl)piperidin-1-yl)methyl)-1H-indole], the IC50 under setting [2] was < 1000 nM.
As to `CCN[C@H](CC(=O)N1CCC(c2nc(N)c3cc(OC)c(OC)c(F)c3n2)C(C(=O)OC)C1)c1ccc(F)cc1` (stereo partly drawn) [Compound 7, Methyl 4-(4-amino-8-fluoro-6,7-dimethoxyquinazolin-2-yl)-1-((R)-3-(ethylamino)-3-(4-fluorophenyl)propanoyl)piperidine-3-carboxylate], the IC50 under setting [1] is > 10000 nM.
For `COc1cc(C)c2[nH]ccc2c1CN1CC[C@@H](C)C[C@H]1c1ccc(P(C)(=O)O)cc1` [Compound 29, 4-((2S, 4R)-1-((5-Methoxy-7-methyl-1H-indol-4-yl)methyl)-4-methylpiperidin-2-yl) Phenyl (Methyl) Phosphinic Acid], the IC50 under setting [2] was < 1000 nM.
Regarding `CCN[C@H](CC(=O)N1CCN(c2nc(N)c3cc4c(c(F)c3n2)OC(F)(F)O4)CC1)c1ccc(F)cc1` [Compound 12, (R)-1-(4-(8-Amino-2,2,4-trifluoro-[1,3]dioxolo[4,5-g]quinazolin-6-yl)piperazin-1-yl)-3-(ethylamino)-3-(4-fluorophenyl)propan-1-one], the IC50 under setting [1] was 1000 to 10000 nM.
With `COc1cc(C)c2[nH]ccc2c1CN1CCC(F)(F)CC1c1ccc(C(=O)O)cc1` (stereo not shown) [Compound 19, 4-(4,4-difluoro-1-((5-methoxy-7-methyl-1H-indol-4-yl)methyl)piperidin-2-yl)benzoic Acid], the IC50 under setting [2] is > 10000 nM.
For the compound `CCN[C@H](CC(=O)N1CCC(c2nc(N)c3cc(OC)c(OC)c(F)c3n2)=C(C(=O)OC)C1)c1ccc(F)cc1` [Compound 6, Methyl (R)-4-(4-amino-8-fluoro-6,7-dimethoxyquinazolin-2-yl)-1-(3-(ethylamino)-3-(4-fluorophenyl)propanoyl)-1,2,5,6-tetrahydropyridine-3-carboxylate], the IC50 under setting [1] was in the range of 1000 to 10000 nM.
